Converted amounts (≈) assume the structure as drawn. Read-outs that look alike come from different tables or passages of the source.
System: Helicobacter pylori
Assay: Minimal inhibitory concentration (MIC) against Helicobacter pylori, urease read-out, 5 clinical strains
Format: cell-based
Experimental: The anti-Helicobacter activity of the subject compounds was assessed by the following in-vitro test procedure.
The activity of test compounds against Helicobacter pylori was determined against a standard set of 5 H. priori strains obtained from clinical material. Minimal inhibitory concentrations (MICs) were determined by measuring the activity of H. pylori urease after treatment of growing cultures of the bacteria with the antimicrobial agents.
The test compounds were dissolved in DMSO at a concentration of 10^-3 M. A dilution to 10^-4 M in DMSO was also prepared. 10 μl volumes of these solutions were pipetted in the wells of Repli-Dishes (®Sterilin). Wells containing DMSO alone were included as controls in each Repli-Dish. Ampicillin ((+)-6-[(2-amino-2-phenylacetyl)amino]-3,3-dimethyl-7-oxo-4-thia-1-azabicyclo[3.2.0]heptane-2-carboxylic acid trihydrate) and metronidazole (2-methyl-5-nitro-1H-imidazol-1-ethanol) were included as reference compounds in each batch of tests. (These compounds were tested at final concentrations of 10^-5, 10^-6, 10^-7 and 10^-8 M). Test plates were stored at 4° C. until used. The five isolates of H. pylori were maintained by subculture on 10% blood agar every 2 or 3 days. The bacteria were grown at 37° C. under an atmosphere containing 5% oxygen, 10% CO2 and 85% nitrogen. Suspensions of Helicobacter pylori for inoculum were prepared in Brain-heart infusion broth and adjusted to an absorbance of 1.5±0.3 at […].
Freshly prepared 10% blood agar held at 45° C. was added in 1 ml volumes to the wells of the test plates, thus diluting the test compounds to 10^-5 and 10^-6 M. The medium was allowed to cool, then 10 μl volumes of bacterial suspension were pipetted on the agar surface. The plates were incubated for 48 h at 37° C. under the microaerophilic atmosphere described above. […] After the 48 h of incubation, 1 ml volumes of urease broth were gently added to each Repli-Dish well and the plates were incubated at 37° C. for 2 h. 100 μl samples of fluid from each well were then pipetted into the wells of 96-place microdilution plates. A purple colour was interpreted as growth, yellow-orange as no growth of H. pylori. By this means a clear end-point was obtained, from which the inhibitory effects could be determined.
Table 1 summarizes the MIC values determined by the above procedure for a subset of the subject compounds.

[1] = 5 H. pylori clinical strains, 10% blood agar, 48 h at 37° C., microaerophilic, read-out: MIC

SMILES | MIC [1] | MIC (48 h)
CCC(C(=O)c1ccc(Cl)cc1)n1ncn(-c2cnc(N3CCN(c4ccc(OC)cc4)CC3)nc2)c1=O (racemic) [compound 8, (±)-2-[1-(4-chlorobenzoyl)propyl]-2,4-dihydro-4-[2-[4-(4-methoxyphenyl)-1-piperazinyl]-5-pyrimidinyl]-3H-1,2,4-triazol-3-one] | 0.1 µM (≈ 0.0534 µg/mL) | 
COc1ccc(C(=O)C(C)n2ncn(-c3ccc(N4CCN(c5ccc(O)cc5)CC4)cc3)c2=O)cc1 (stereo not shown) [compound 35, 2,4-dihydro-4-[4-[4-(4-hydroxyphenyl)-1-piperazinyl]phenyl]-2-[1-(4-methoxy-benzoyl)ethyl]-3H-1,2,4-triazol-3-one] | 10 µM (≈ 5 µg/mL) | 
CCC(C(=O)c1ccc(Cl)cc1)n1ncn(-c2cnc(N3CCN(c4ccc(O)cc4)CC3)nc2)c1=O (racemic) [compound 26, (±)-2-[1-(4-chlorobenzoyl)propyl]-2,4-dihydro-4-[2-[4-(4-hydroxyphenyl)-1-piperazinyl]-5-pyrimidinyl]-3H-1,2,4-triazol-3-one] | 0.1 µM (≈ 0.052 µg/mL) | 
CCC(C(=O)c1ccc(Cl)cc1)n1ncn(-c2ccc(N3CCN(c4ccc(OC)cn4)CC3)cc2)c1=O (racemic) [compound 3, (±)-2-[1-(4-chlorobenzoyl)propyl]-2,4-dihydro-4-[4-[4-(5-methoxy-2-pyridinyl)-1-piperazinyl]phenyl]-3H-1,2,4-triazol-3-one] | 0.1 µM (≈ 0.0533 µg/mL) | 
CCC(C(=O)c1ccc(Cl)cc1)n1ncn(-c2ccc(N3CCN(c4ccc(OC)cc4)CC3)nc2)c1=O (racemic) [compound 1, (±)-2-[1-(4-chlorobenzoyl)propyl]-2,4-dihydro-4-[6-[4-(4-methoxyphenyl)-1-piperazinyl]-3-pyridinyl]-3H-1,2,4-triazol-3-one] | 0.1 µM (≈ 0.0533 µg/mL) | 
CC(C(=O)c1ccc(Br)cc1)n1ncn(-c2ccc(N3CCN(c4ccc(O[Si](C)(C)C(C)(C)C)cc4)CC3)cc2)c1=O (stereo not shown) [compound 47, 2-[1-(4-bromobenzoyl)ethyl]-4-[4-[4-[4-[[(1,1-dimethylethyl)dimethylsilyl]oxy]phenyl]-1-piperazinyl]phenyl]-2,4-dihydro-3H-1,2,4-triazol-3-one] |  | 1 µM (≈ 0.663 µg/mL)
CCC(C(=O)c1ccc(Cl)cc1)n1ncn(-c2ccc(N3CCN(c4ccc(OC)cc4)CC3)cn2)c1=O (racemic) [compound 2, (±)-2-[1-(4-chlorobenzoyl)propyl]-2,4-dihydro-4-[5-[4-(4-methoxyphenyl)-1-piperazinyl]-2-pyridinyl]-3H-1,2,4-triazol-3-one] | 10 µM (≈ 5.33 µg/mL) | 

— US5650411A, “Substituted azolone derivatives” (Janssen Pharmaceutica N.V., priority 1993, dated 1997)
